Experiment: Multi-component pharmacokinetic study of GQD, GQD-GC and single herb extracts in rats (plasma, LC/MS/MS)
Type: in vivo, Sprague-Dawley rats
Settings: male, Sprague-Dawley, rat, plasma, po, 3.54 g/kg, HQ (Huang-Qin) group: rats, oral extract 3.54 g/kg, plasma; read-out: AUClast
Method: Male Sprague-Dawley rats (220–250 g) were used for PK study, and the details were described in Supplemental Data. All procedures were in accordance with the National Institutes of Health Guide for the Care and Use of Laboratory Animals.
For PK study of GQD and its component herbs, rats were randomly divided into six groups (n = 10 for each group) before oral administration.
All blood samples were immediately centrifuged at 6,000 rpm (4°C) for 20 min to obtain plasma. The plasma samples were stored at −80°C.
A Finnigan TSQ Quantum triple quadrupole mass spectrometer was connected to a Surveyor HPLC via ESI interface (ThermoFisher). High purity nitrogen was used as the sheath and auxiliary gas; Ultra-high purity argon was used as the collision gas (1.5 mTorr). Q1 and Q3 quadrupoles were set at unit resolution. […] The column temperature was 40°C. The mobile phase consisted of acetonitrile containing 2% (v/v) methanol (A) and water containing 0.1% (v/v) formic acid (B). […] An aliquot of 5 μL was injected for analysis. UV spectra were obtained by scanning from 200 to 400 nm. The mass spectrometer was operated in the (+)-ESI mode. The optimized parameters were as follows: sheath gas (N2), 50 arb; auxiliary gas (N2), 5 arb; spray voltage, 4.0 kV; capillary temperature, 330°C; collision energy, see Table S1. Analytes were detected in the selected reaction monitoring (SRM) mode. Data were processed by Xcalibur 2.0.7 software (ThermoFisher).
LC/MS/MS calibration and quantitation data were processed with Xcalibur 2.0.7 software (ThermoFisher). The maximal plasma concentrations (Cmax) and their time of occurrence (Tmax) were obtained directly from the measured data. Other pharmacokinetic parameters were calculated by non-compartment or compartment models using WinNonlin® software (v6.1, Pharsight). Unless otherwise stated, results were expressed as the mean ± SD. Statistical significance in differences of the means was determined by Student's t–test, with a significance level of P < 0.05.
Herbal materials and extracts.
The four component herbs, Puerariae Lobatae Radix (Ge-Gen, GG), Scutellariae Radix (Huang-Qin, HQ), Coptidis Rhizoma (Huang-Lian, HL), and Glycyrrhizae Radix et Rhizoma Praeparata cum Melle (Gan-Cao, GC) were purchased from Tianheng Pharmacy. GQD was prepared by decocting the four component herbs […]
pre-extraction of Ge-Gen using 200 mL of water for 0.5 h. The decoctions were combined, filtered, and concentrated in vacuum at 50 °C. GQD-GC was prepared using the same procedure, except that Gan-Cao was removed from the formula. Final concentration of the GQD-GC extract was equivalent to 1.0 g of the crude drugs per mL. For single herb extracts, the herbs were decocted in 8-fold volume of water for […]
Final concentrations of the extracts were 1.0 g/mL for Ge-Gen, and 0.5 g/mL for Huang-Qin, Huang-Lian and […]
For pharmacokinetic study, Male Sprague-Dawley rats (220-250 g) were obtained from the Laboratory Animal Center of Peking University Health Science Center. The […]
The rats had free access to tap water and soy-free custom diet (Ke’ao Xieli Co.). All procedures were in accordance with the National Institutes of Health Guide for the Care and Use of Laboratory Animals […]
Experimental details for the PK study
1. Preparation of internal standard solution, calibration standard solutions, and quality control solutions […]
internal standard solution. Reference standard compounds were dissolved in the internal standard solution to prepare individual stock solutions (1.0 mg/mL). These […]
each compound. The standard solution was then serially diluted to obtain calibration […]
Quality control stock solutions were prepared at three concentration levels as high QC (HQC), middle QC (MQC), and low QC (LQC), based on linear ranges of the analytes.
2.1. Sample preparation for pharmacokinetic study
The calibration standard and quality control solutions for pharmacokinetic study were […]

Compound	AUC(0-t)
O=C(O)[C@H]1O[C@@H](Oc2cc3oc(-c4ccccc4)cc(=O)c3c(O)c2O)[C@H](O)[C@@H](O)[C@@H]1O [Compound 17, baicalin]	52600 ± 35500 ng·h/mL
COc1c(O)cc(OC2OC(CO)C(O)C(O)C2O)c2c(=O)cc(-c3ccccc3)oc12 (centres unmarked) [Compound 13, wogonin 5-O-glucoside]	42.8 ± 6.01 ng·h/mL

Same assay, conditions: male, Sprague-Dawley, rat, plasma, po, 3.54 g/kg; Huang-Qin group: rats, oral 3.54 g/kg, plasma; read-out: AUClast

Compound	AUC(0-t)
O=C(O)[C@H]1O[C@@H](Oc2cc3oc(-c4ccccc4)cc(=O)c3c(O)c2O)[C@H](O)[C@@H](O)[C@@H]1O [Compound 17, baicalin]	52600 ± 35500 ng·h/mL

Same assay, conditions: male, Sprague-Dawley, rat, plasma, po, 16.5 g/kg, GQD-GC group (GQD without Gan-Cao): rats, oral 16.5 g/kg, plasma; read-out: AUClast

Compound	AUC(0-t)
O=C(O)[C@H]1O[C@@H](Oc2cc3oc(-c4ccccc4)cc(=O)c3c(O)c2O)[C@H](O)[C@@H](O)[C@@H]1O [Compound 17, baicalin]	39600 ± 2610 ng·h/mL
COc1c(O)cc(OC2OC(CO)C(O)C(O)C2O)c2c(=O)cc(-c3ccccc3)oc12 (centres unmarked) [Compound 13, wogonin 5-O-glucoside]	28.2 ± 3.04 ng·h/mL

Same assay, conditions: male, Sprague-Dawley, rat, plasma, po, 18.9 g/kg, GQD group: rats, oral GQD extract 18.9 g/kg, plasma; read-out: AUClast

Compound	AUC(0-t)
O=C(O)[C@H]1O[C@@H](Oc2cc3oc(-c4ccccc4)cc(=O)c3c(O)c2O)[C@H](O)[C@@H](O)[C@@H]1O [Compound 17, baicalin]	22300 ± 11200 ng·h/mL
COc1c(O)cc(OC2OC(CO)C(O)C(O)C2O)c2c(=O)cc(-c3ccccc3)oc12 (centres unmarked) [Compound 13, wogonin 5-O-glucoside]	53 ± 7.56 ng·h/mL

Same assay, conditions: male, Sprague-Dawley, rat; GQD group: rats, oral GQD extract 18.9 g/kg, plasma; read-out: Cmax

Compound	Cmax
O=C(O)[C@H]1O[C@@H](Oc2cc3oc(-c4ccccc4)cc(=O)c3c(O)c2O)[C@H](O)[C@@H](O)[C@@H]1O [Compound 17, baicalin]	1180 ± 870 ng/mL
COc1c(O)cc(OC2OC(CO)C(O)C(O)C2O)c2c(=O)cc(-c3ccccc3)oc12 (centres unmarked) [Compound 13, wogonin 5-O-glucoside]	1.83 ± 0.14 ng/mL

Same assay, conditions: male, Sprague-Dawley, rat; GQD group: rats, oral GQD extract 18.9 g/kg, plasma; read-out: T1/2 (converted)

Compound	half-life
O=C(O)[C@H]1O[C@@H](Oc2cc3oc(-c4ccccc4)cc(=O)c3c(O)c2O)[C@H](O)[C@@H](O)[C@@H]1O [Compound 17, baicalin]	288 ± 196 min
COc1c(O)cc(OC2OC(CO)C(O)C(O)C2O)c2c(=O)cc(-c3ccccc3)oc12 (centres unmarked) [Compound 13, wogonin 5-O-glucoside]	968 ± 253 min

Same assay, conditions: male, Sprague-Dawley, rat; GQD group: rats, oral GQD extract 18.9 g/kg, plasma; read-out: Tmax

Compound	Tmax
O=C(O)[C@H]1O[C@@H](Oc2cc3oc(-c4ccccc4)cc(=O)c3c(O)c2O)[C@H](O)[C@@H](O)[C@@H]1O [Compound 17, baicalin]	7.29 ± 1.38 h
COc1c(O)cc(OC2OC(CO)C(O)C(O)C2O)c2c(=O)cc(-c3ccccc3)oc12 (centres unmarked) [Compound 13, wogonin 5-O-glucoside]	2 ± 1.29 h

Same assay, conditions: male, Sprague-Dawley, rat; GQD-GC group (GQD without Gan-Cao): rats, oral 16.5 g/kg, plasma; read-out: Cmax

Compound	Cmax
O=C(O)[C@H]1O[C@@H](Oc2cc3oc(-c4ccccc4)cc(=O)c3c(O)c2O)[C@H](O)[C@@H](O)[C@@H]1O [Compound 17, baicalin]	1890 ± 988 ng/mL
COc1c(O)cc(OC2OC(CO)C(O)C(O)C2O)c2c(=O)cc(-c3ccccc3)oc12 (centres unmarked) [Compound 13, wogonin 5-O-glucoside]	5.17 ± 0.26 ng/mL

Same assay, conditions: male, Sprague-Dawley, rat; GQD-GC group (GQD without Gan-Cao): rats, oral 16.5 g/kg, plasma; read-out: T1/2 (converted)

Compound	half-life
O=C(O)[C@H]1O[C@@H](Oc2cc3oc(-c4ccccc4)cc(=O)c3c(O)c2O)[C@H](O)[C@@H](O)[C@@H]1O [Compound 17, baicalin]	320 ± 153 min
COc1c(O)cc(OC2OC(CO)C(O)C(O)C2O)c2c(=O)cc(-c3ccccc3)oc12 (centres unmarked) [Compound 13, wogonin 5-O-glucoside]	787 ± 238 min

Same assay, conditions: male, Sprague-Dawley, rat; GQD-GC group (GQD without Gan-Cao): rats, oral 16.5 g/kg, plasma; read-out: Tmax

Compound	Tmax
O=C(O)[C@H]1O[C@@H](Oc2cc3oc(-c4ccccc4)cc(=O)c3c(O)c2O)[C@H](O)[C@@H](O)[C@@H]1O [Compound 17, baicalin]	7.71 ± 1.34 h
COc1c(O)cc(OC2OC(CO)C(O)C(O)C2O)c2c(=O)cc(-c3ccccc3)oc12 (centres unmarked) [Compound 13, wogonin 5-O-glucoside]	2 ± 4.23 h

Same assay, conditions: male, Sprague-Dawley, rat; HQ (Huang-Qin) group: rats, oral extract 3.54 g/kg, plasma; read-out: Cmax

Compound	Cmax
O=C(O)[C@H]1O[C@@H](Oc2cc3oc(-c4ccccc4)cc(=O)c3c(O)c2O)[C@H](O)[C@@H](O)[C@@H]1O [Compound 17, baicalin]	4040 ± 584 ng/mL
COc1c(O)cc(OC2OC(CO)C(O)C(O)C2O)c2c(=O)cc(-c3ccccc3)oc12 (centres unmarked) [Compound 13, wogonin 5-O-glucoside]	1.92 ± 0.13 ng/mL

Same assay, conditions: male, Sprague-Dawley, rat; HQ (Huang-Qin) group: rats, oral extract 3.54 g/kg, plasma; read-out: T1/2 (converted)

Compound	half-life
O=C(O)[C@H]1O[C@@H](Oc2cc3oc(-c4ccccc4)cc(=O)c3c(O)c2O)[C@H](O)[C@@H](O)[C@@H]1O [Compound 17, baicalin]	199 ± 64.8 min
COc1c(O)cc(OC2OC(CO)C(O)C(O)C2O)c2c(=O)cc(-c3ccccc3)oc12 (centres unmarked) [Compound 13, wogonin 5-O-glucoside]	965 ± 327 min

Same assay, conditions: male, Sprague-Dawley, rat; HQ (Huang-Qin) group: rats, oral extract 3.54 g/kg, plasma; read-out: Tmax

Compound	Tmax
O=C(O)[C@H]1O[C@@H](Oc2cc3oc(-c4ccccc4)cc(=O)c3c(O)c2O)[C@H](O)[C@@H](O)[C@@H]1O [Compound 17, baicalin]	7.79 ± 0.99 h
COc1c(O)cc(OC2OC(CO)C(O)C(O)C2O)c2c(=O)cc(-c3ccccc3)oc12 (centres unmarked) [Compound 13, wogonin 5-O-glucoside]	0.1 ± 0.07 h

Same assay, conditions: rats, oral; GQD vs Huang-Qin

Compound	decrease of Cmax in the GQD group compared with the Huang-Qin group
O=C(O)[C@H]1O[C@@H](Oc2cc3oc(-c4ccccc4)cc(=O)c3c(O)c2O)[C@H](O)[C@@H](O)[C@@H]1O [Compound 17, baicalin]	at least 30%

Reference: PMC6018403 (Frontiers in Pharmacology, 2018)
